Data on three compounds can be found in patent publication US11492361B2, “Compounds useful in HIV therapy” (GlaxoSmithKline Intellectual Property Development Limited, priority 2018, dated 2022).

Test [1] deals with p100/p52. Kind of test: p100/p52 Western blot (WB) assay. It is filed as cell-based, human. The conditions noted are these: PBMC cells from healthy donors, 24 hrs, read-out: p100/p52 Western Blot (WB) EC50. On the procedure: Cell cultures were set up to evaluate several SMACm compounds. Frozen PBMC cells from healthy donors were thawed and plated in 2 ml deepwell plates at 2×10^6 cells/ml. Serial dilutions of each compound was carried out as a 7 fold 1:6 dilution with the starting final dose of 1000 nM. Cells were then combined with compound and place at 37° for 24 hrs. The following day cells were pelleted and placed at −80 until lysis.
In preparation for cell lysis, the frozen cell pellets and an aliquot of NP40 Cell Lysis Buffer (Invitrogen, Part #FNN0021), as well as an aliquot of 10× Protease Inhibitor Cocktail (Sigma, Part #P-2714) are thawed on ice. Once thawed, the complete lysis buffer is prepared by adding 10% final volume PI cocktail to the NP40 buffer and then adding in sufficient volume of 0.1 M PMSF (Sigma, Part #93482) and 1 M DTT (Sigma, Part #43816) to create a final concentration of 1 mM each in the complete lysis buffer. Cell lysis is then carried out by resuspending each cell pellet in 30 μL per 10^6 cells then incubating on ice for 30 minutes with vigorous vortexing every 10 minutes. The lysed cells are then centrifuged at 13K RPM for 10 minutes at 4° C. in a refrigerated microcentrifuge. The supernatants (lysates) are then transferred into new microcentrifuge tubes and either stored at −80° or utilized immediately for protein concentration and Western blot analysis.
Protein concentration for each lysate is determined using a detergent compatible Bradford assay (Pierce, Part #23246) following the manufacturer's microplate instructions.
Capillary Western analysis were performed using the ProteinSimple Jess System. A total of 1 ug of cell lysate was prepared according to the provided protocol supplied by ProteinSimple. The primary antibody for p100/p52 (Cell, Signaling #3017) is diluted 1:10 for use in the Jess system. The 12-230 kDa Jess Seperation Module capillary cartridges Separation Module (SM-W004) is used in conjunction with the Anti-Rabbit Secondary NIR conjugate (043-819). The Separation module includes prefilled plates that the samples, primary and secondary antibodies, as well as protein normalization reagent and diluents are loaded onto to perform separation and detection. Once the assay has run, the data is then analyzed utilizing the Compass software provided by ProteinSimple.
Alternatively to capillary electrophoresis, traditional immunoblot assays were carried out, 10 μg of cell lysate was loaded per well into 4-20% Tris-Glycine SDS-PAGE gels. Protein from the SDS-PAGE gels were transferred to Turbo Midi PVDF Transfer Packs (BioRad) using the “Mixed MW” protocol for one Midi Format Gel (constant 2.5 A up to 25V, for 7 minutes) of the Trans-Blot Turbo Transfer System (Bio-Rad) with premade Trans-Blot per the manufacturer's instructions. After transfer, PVDF membranes were blocked in 5% bovine serum albumin (BSA) in 1×TBS (BioRad) with 0.1% Tween-20 for 1 hour at room temperature with gentle rocking. Primary antibodies were added and incubated overnight at 4° C. (anti-p100/p52, Cell Signaling Technology #3017, 1:1000; anti-Actin-HRP conjugate, Abcam #49900, 1:30,000). Following primary staining, the membrane washed three times with 1× Tris Buffered Saline (TBS)+0.1% TWEEN® 20 for 10 minutes each wash. After washing, the membrane was incubated in 5% BSA in 1×TBS+0.1% TWEEN® 20 with the appropriate secondary antibody for 2 hours at room temperature. Following secondary stain the membrane was washed twice for 10 minutes with 1×TBS+0.1% TWEEN® 20 followed by a 10-minute wash with 1×TBS. The membrane was then patted dry with filter paper and an image was captured of the undeveloped membrane on the ChemiDoc MP Imaging System using Image Lab software (BioRad). Sufficient ECL reagent (GE Healthcare) was used to cover the membrane and a series of images were taken starting with 0.001 second and doubling to tripling the exposure time until the luminescence from the developed membrane saturated the image. […]
(In general: A western blot detects proteins with antibodies after separation by electrophoresis.)

Test [2] deals with Jurkat HIV-luciferase clones. Kind of test: Jurkat latency reversal assay. It is filed as cell-based. The conditions noted are these: Table 4 summary, read-out: Jurkat EC50. The method, boiled down:
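Three pooled Jurkat HIV-luciferase clones (C16, I15, N6; 5,000 cells/well, maintained with 500 nM EFV) exposed to 3-fold, 14-point titrations (10 μM to 2.1 pM, 0.5% DMSO) in duplicate for 48 h at 37 °C. Luciferase luminescence read; EC50 and maximal % activation versus vehicle from four-parameter logistic fit.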

The test system of test [3] is cell-associated HIV RNA (HIV gag RNA) in CD4+ T cells. To be noted: background statement, primary cells / resting CD4+ T cells; cited from earlier work.
Test [4] has as its system Jurkat HIV-luciferase clones. To be noted: background statement; cited from earlier work.
Test [5] has as its system p100/p52. The conditions noted are these: background statement, primary cells; cited from earlier work.

Where two headings read alike, the source gives them in different places.

On to `CN[C@H](C)C(=O)N[C@@H](C(=O)N1CCC[C@@H]1C(=O)N[C@@H]1c2ccccc2C[C@@H]1OCC#CC#CCO[C@@H]1Cc2ccccc2[C@H]1NC(=O)[C@H]1CCCN1C(=O)[C@H](NC(=O)[C@@H](C)NC)C1CCCCC1)C1CCCCC1` [AZD5582, reference compound], for which the figures for the EC50 in test [1] and in test [2] were 63 nM and 8 nM, respectively. The “HIV caRNA induction” value in test [3] is reported as “increase in cell-associated HIV RNA expression”.
`CC[C@H](NC(=O)[C@H](C)NC)C(=O)N1C[C@@H](O)C[C@H]1Cc1c(-c2[nH]c3cc(F)ccc3c2C[C@@H]2C[C@H](O)CN2C(=O)[C@H](CC)NC(=O)[C@H](C)NC)[nH]c2cc(F)ccc12` [Birinapant, reference compound]: the EC50 in test [1] (Homo sapiens) came out at 1000 nM; in test [2] (Homo sapiens, Jurkat, 48 h) it was 200 nM.
For `CN[C@H](C)C(=O)N[C@@H]1CCS[C@@H]2CC(C)(C)C(C(=O)N[C@@H]3CCCc4ccccc43)N2C1=O` (stereo partly shown) [SBI-0637142], the “potency in cell line assays / Jurkat (HIV latency reversal)” value in test [4] is “potent”. Also, the EC50 is 100 to 1000 nM in test [1] and 1 nM in test [2]. The p100-p52 conversion entry in test [5] is “did not exhibit activity”. For the same compound, the “HIV caRNA induction” value in test [3] was “did not exhibit activity”.
